The values below come from patent US12653796B2, “Compounds for use (in particular RIPA-56) in the prevention and/or treatment of non-alcoholic fatty liver disease” (SORBONNE UNIVERSITE, priority 2019, dated 2026).

Assay [1] has as its system RIPK1. The assay can be described thus: ELISA of RIPK1 released in supernatant of L929 cells exposed to TNFα. It counts as cell-based, murine. To be noted: 20 μM, 2 h, then TNFα (25 ng/mL) 6 h. The procedure: FIG. 12. […] Results are shown as mean±SEM of six replicates.
L929 cells (LGC Standards, Molsheim, France), were cultured in Dulbecco's modified Eagle's medium (DMEM) (ThermoFisher, Massachusetts, USA) supplemented with 10% fetal bovine serum (Eurobio, Courtaboeuf, France), penicillin (100 IU/ml), streptomycin (0.1 mg/ml), and L-glutamine (0.03%) (ThermoFisher). […] AML-12 (alpha mouse liver-12) hepatocytes (LGC Standards) were cultured in DMEM/F12 Medium (ThermoFisher) supplemented with 10% fetal bovine serum (Eurobio), 10 μg/ml insulin, 5.5 μg/ml transferrin, 5 ng/ml selenium and 40 ng/ml dexamethasone (Sigma, Missouri, USA). AML-12 hepatocytes were stimulated with insulin (#I0516, 10 nM; Sigma) for 15 minutes.
Protein concentrations of human RIPK1 (SEE640Hu; Could-Clone Corp., Texas, USA), human MLKL (SER645Hu; Could-Clone Corp.) and murine RIPK1 (CSB-EL019735MO; Cusabio, Texas, USA) were determined by an ELISA kit according to the manufacturer's instructions.
(In general: An ELISA detects its analyte on a solid surface through an enzyme-linked reagent.)

The test system of assay [2] is HFD-fed mice. The assay can be described thus: RIPA-56 feeding experiment in HFD-fed mice (NASH/steatosis model). The format is in vivo, C57BL/6J mice. The procedure: FIG. 2. RIPA-56 treatment improves liver inflammation and fibrosis in HFD-fed mice. Six-week-old male C57BL/6J mice (n=5 per group) were fed either with normal control diet (NCD) or high-fat diet (HFD) supplemented or not with RIPA-56, according to prophylactic (“Pro”) or curative (“Cur”) designs for 16 weeks, the time necessary for an inflammatory and fibrotic response to develop. Differences between mice were determined by analysis of variance (ANOVA) with Bonferroni's multiple comparison. (A) Schematic representation of the experimental design; (B) Immunoblot analyses of whole liver protein extracts from mice fed NCD (1 to 3), HFD (4 to 6), HFD with RIPA-56 “Pro” (7 to 9), or HFD with RIPA-56 “Cur” (10 to 12) using antibodies against RIPK1, MLKL, RIPK3 and GAPDH as loading control; (C) Serum analysis of ALT; (D) Immuno-histochemical analysis of F4/80 on representative liver tissue sections from mice of each group; (E) Quantitative analysis of F4/80^+ foci using ImageJ software, 10 pictures per mouse were quantified; (F) F4/80, Mcp-1 and Tnf mRNA levels were assessed by RT-qPCR. (G) Representative Sirius Red staining of liver tissue section from mice of each group; (H) Quantification of light polarized Sirius Red pictures, 10 pictures per mouse were analyzed; (I) Collal mRNA levels were assessed by RT-qPCR. All data are expressed as mean±SEM; *p<0.05; **p<0.01; ***p<0.001. Scale bars indicate 50 μm.
FIG. 5. RIPA-56 treatment improves HFD-induced obesity and steatosis in mice. Six-week-old male C57BL/6J mice (n=5 per group) were fed either NCD or HFD supplemented or not with RIPA-56 for 16 weeks, as depicted in FIG. 2A, to analyze the metabolic status of the mice. (A) Body weight gain in mice of the 4 groups. No significant change in (B) food intake, (C) spontaneous locomotor activity, or (D) respiratory exchange ratio (RER) in mice Of the 4 groups; (E) Whole energy expenditure was evaluated during daylight and night in mice of the 4 groups; (F) Representative H&E staining of liver tissue sections from mice of the 4 groups. Scale bars, 50 μm; (G) Steatosis score of liver tissue sections was evaluated blinded; (H) Intrahepatic triglyceride contents were measured in two liver samples per mouse. Results are shown as mean±SEM; *p<0.05; **p<0.01; ***p<0.001.
FIG. 6. Fat and lean mass in prophylactically- and curatively-treated mice compared with control mice under HFD. (A) Body fat mass and relative body fat content, and (B) lean mass and relative lean content were evaluated in HFD-fed mice using MRI analysis. All results are shown as mean±SEM; n=5 per group; *p<0.05. Differences between groups were determined by one-way ANOVA with Bonferroni's multiple comparison.
Six-week-old male C57BL/6J mice (Charles River Laboratories, Ecully, France) were fed a high-fat diet (HFD—45 kcal % fat) or a normal chow diet (NCD) (Ssniff spezialdiäten GmbH, Soest, Germany) for 16 weeks (the time necessary for an inflammatory and fibrotic response to develop).
RIPA-56 (MedChemExpress, Stockholm, Sweden) was incorporated in diet by Ssniff spezialdiäten GmbH (Soest, Germany) according to a standardized protocol. Ssniff company is an approved manufacturer of laboratory animal diets and has the license to produce medicated feed for laboratory animals in accordance with Directive 2001/82/EC. Before the end of the feeding period, mice were single housed for one week in metabolic cages to measure food intake, respiratory exchange ratio (RER), energy expenditure and spontaneous locomotor activity using a LabMaster indirect calorimetry system (TSE Systems GmbH, Bad Homburg, Germany). Mice were sacrificed under anesthesia and blood was collected via intracardiac puncture procedure. Tissue samples were either directly snap-freezed in liquid nitrogen for molecular analysis or fixed in 4% PFA and embedded in paraffin for histological analysis. […]

On to `CCC(C)(C)C(=O)N(O)Cc1ccccc1` [RIPA-56, N-Benzyl-N-hydroxy-2,2-dimethylbutanamide], for which, in assay [1], the “RIPK1 in the supernatant” value is given as “undetectable”. In assay [2] (HFD 16 weeks, 300 mg/kg in diet, both prophylactic and curative treatments), the “MLKL and RIPK3 expression in liver (Western blot)” value is given as “repressed”. For the same compound, in assay [2] (HFD-fed mice), the “hepatic fat content by blinded histological analyses” value is reported as “marked decrease” and the “hepatic triglyceride content, reduction” value is 30-40%. Besides, in assay [2] (RIPA-56-treated HFD-fed mice), the “increments in liver mRNA levels of Ccl20, Nlrp3 or Il-1b” value is listed as “abrogated or reduced”. Besides, the “expression of RIPK1 in liver” value in assay [2] (Western blot and RT-qPCR) is “not impacted”. The steatosis result in assay [2] (both curative and prophylactic settings) is “largely reduced”. For the same compound, the “increase of serum alanine aminotransferase (ALT)” value in assay [2] (both prophylactic and curative settings) is given as “abolished”. The “macrophage infiltration (hepatic F4/80 immunostaining)” value in assay [2] (both prophylactic and curative treatments) is on record as “suppressed”. Moreover, the “liver mRNA levels of F4/80 and Mcp-1, difference HFD vs NCD” value in assay [2] (both regimens) is listed as “disappeared”. The “mRNA levels of MLKL and RIPK3 in liver” value in assay [2] (both regimens, RT-qPCR) is listed as “decreased”. The “body weight gain, fat- or lean-mass vs untreated HFD-fed mice” value in assay [2] (curative setting, start after 12 weeks of HFD) is reported as “did not result in differences”. In assay [2] (curative treatment), the “Collagen-1a1 (Col1a1) mRNA levels in liver” value is “reduced”, the “TNFα expression in liver” value is reported as “markedly reduced” and the “intensity of histologic features of NASH” value is listed as “largely attenuates”. The “pericellular fibrosis (Sirius red staining)” value in assay [2] (prophylactic and curative treatments) is “virtually disappeared”. In addition, in assay [2] (prophylactic setting), the “MLKL and RIPK3 expression in liver (Western blot)” value is “almost complete inhibition”; the “body weight gain, lower than untreated HFD-fed mice” value is given as roughly 12%; the “fat and relative fat mass (MRI)” value is on record as “significant decrease”; the “lean and relative lean body mass (MRI)” value is “trend towards increased”. In addition, in assay [2] (prophylactic treatment), the “Collagen-1a1 (Col1a1) mRNA levels in liver” value is reported as “no longer increased”, the “histologic features of NASH” value is listed as “prevents” and the “increase of TNFα expression in liver” value was “not after RIPA-56 prophylactic treatment”. In addition, the “energy expenditure (indirect calorimetry)” value in assay [2] (prophylactic treatment vs curative or no treatment) is listed as “increased”.
